{"source": "patent US4016148A", "about": "“Peptide derivatives of phosphonic and phosphinic acids and intermediates therefor” (Hoffmann-La Roche Inc., priority 1975, dated 1977)", "key": {"[1]": {"test_system": "E. coli", "assay": "Potentiation of antibiotics by the peptide derivative: MIC and fractional inhibitory concentration index against E. coli in Davis minimal medium", "assay_type": "cell-based", "conditions": "for Fractional Inhibitory Concentration Index: antibiotic in combination with (1R)-1-(L-alanylamino)-ethylphosphonic acid; for Minimum Inhibitory Concentration, Antibiotic + peptide derivative: concentration of the antibiotic: in combination with (1R)-1-(L-alanylamino)-ethylphosphonic acid", "text": "The peptide derivatives provided by this invention potentiate the activity of antibiotics (e.g. penicillin and cephalosporin antibiotics and D-cycloserine). Thus, for example the fractional inhibitory concentration indices of (1R)-1-(L-alanylamino)-ethylphosphonic acid in combination with a cephalosporin, with a penicillin antibiotic and with D-cycloserine against E. coli in Davis minimal medium are given in Table 1."}, "[2]": {"test_system": "E. coli", "assay": "Fractional inhibitory concentration indices of peptide derivatives in a 2:1 ratio with D-cycloserine against E. coli in Davis minimal medium", "assay_type": "cell-based", "conditions": "peptide derivative in a 2:1 ratio with D-cycloserine", "text": "Again, for example, the fractional inhibitory concentration indices of (1R)-1-(L-alanylamino)-ethylphosphonic acid (Derivative A), (1R)-1-(L-alanyl-L-alanylamino)-ethylphosphonic acid (Derivative B), (1R)-1-(L-alanyl-L-alanyl-L-alanylamino)-ethylphosphonic acid (Derivative C), (1R)-1-(L-alanyl-L-alanyl-L-alanyl-L-alanylamino)-ethylphosphonic acid (Derivative D), (1R)-1-(L-phenylalanylamino)-ethylphosphonic acid (Derivative E), (1R)-1-(L-valylamino)-ethylphosphonic acid (Derivative F) and (1R)-1-(L-leucylamino)-ethylphosphonic acid (Derivative G) in a 2:1 ratio with D-cycloserine against E. coli in Davis minimal medium are given in Table 2."}}, "note": "Residues, ends and D or L forms follow the SMILES beside them."}
{"smiles": "CC1(C)S[C@@H]2[C@H](NC(=O)[C@H](N)c3ccc(O)cc3)C(=O)N2[C@H]1C(=O)O", "note": "[Amoxycillin]", "values": [{"measurement": "Minimum Inhibitory Concentration, Antibiotic alone", "setting": "[1]", "result": 4, "unit": "µg/mL"}, {"measurement": "Fractional Inhibitory Concentration Index", "setting": "[1]", "result": 0.3}, {"measurement": "Minimum Inhibitory Concentration, Antibiotic + peptide derivative: concentration of the antibiotic", "setting": "[1]", "result": 1, "unit": "µg/mL"}]}
{"smiles": "CC1=C(C(=O)O)N2C(=O)[C@@H](NC(=O)[C@H](N)C3=CCC=CC3)[C@H]2SC1", "note": "[Cephradine]", "values": [{"measurement": "Minimum Inhibitory Concentration, Antibiotic alone", "setting": "[1]", "result": 16, "unit": "µg/mL"}, {"measurement": "Fractional Inhibitory Concentration Index", "setting": "[1]", "result": 0.5}, {"measurement": "Minimum Inhibitory Concentration, Antibiotic + peptide derivative: concentration of the antibiotic", "setting": "[1]", "result": 4, "unit": "µg/mL"}]}
{"smiles": "N[C@@H]1CONC1=O", "note": "[D-Cycloserine]", "values": [{"measurement": "Minimum Inhibitory Concentration, Antibiotic alone", "setting": "[1]", "result": 64, "unit": "µg/mL"}, {"measurement": "Fractional Inhibitory Concentration Index", "setting": "[1]", "result": 0.25}, {"measurement": "Minimum Inhibitory Concentration, Antibiotic + peptide derivative: concentration of the antibiotic", "setting": "[1]", "result": 0.25, "unit": "µg/mL"}]}
{"smiles": "C[C@H](N)C(=O)N[C@@H](C)P(=O)(O)O", "note": "[Derivative A, (1R)-1-(L-alanylamino)-ethylphosphonic acid]", "values": [{"measurement": "Fractional Inhibitory Concentration Index", "setting": "[2]", "result": 0.3}, {"measurement": "Fractional Inhibitory Concentration of D-cycloserine", "setting": "[2]", "result": 0.06}, {"measurement": "Minimum Inhibitory Concentration, Antibiotic + peptide derivative: concentration of the peptide derivative", "setting": "[1]; in combination with Amoxycillin", "result": 0.06, "unit": "µg/mL"}, {"measurement": "Minimum Inhibitory Concentration, Antibiotic + peptide derivative: concentration of the peptide derivative", "setting": "[1]; in combination with Cephradine", "result": 0.25, "unit": "µg/mL"}, {"measurement": "Minimum Inhibitory Concentration, Antibiotic + peptide derivative: concentration of the peptide derivative", "setting": "[1]; in combination with D-Cycloserine", "result": 0.25, "unit": "µg/mL"}]}
{"smiles": "C[C@H](N)C(=O)N[C@@H](C)C(=O)N[C@@H](C)P(=O)(O)O", "note": "[Derivative B, (1R)-1-(L-alanyl-L-alanylamino)-ethylphosphonic acid]", "values": [{"measurement": "Fractional Inhibitory Concentration Index", "setting": "[2]", "result": 0.2}, {"measurement": "Fractional Inhibitory Concentration of D-cycloserine", "setting": "[2]", "result": 0.03}]}
{"smiles": "C[C@H](N)C(=O)N[C@@H](C)C(=O)N[C@@H](C)C(=O)N[C@@H](C)P(=O)(O)O", "note": "[Derivative C, (1R)-1-(L-alanyl-L-alanyl-L-alanylamino)-ethylphosphonic acid]", "values": [{"measurement": "Fractional Inhibitory Concentration Index", "setting": "[2]", "result": 0.1}, {"measurement": "Fractional Inhibitory Concentration of D-cycloserine", "setting": "[2]", "result": 0.05}]}
{"smiles": "C[C@H](N)C(=O)N[C@@H](C)C(=O)N[C@@H](C)C(=O)N[C@@H](C)C(=O)N[C@@H](C)P(=O)(O)O", "note": "[Derivative D, (1R)-1-(L-alanyl-L-alanyl-L-alanyl-L-alanylamino)-ethylphosphonic acid] (HELM PEPTIDE1{A.A.A.A.[C[C@H](N[*:1])P(=O)(O)O]}$$$$V2.0)", "values": [{"measurement": "Fractional Inhibitory Concentration Index", "setting": "[2]", "result": 0.2}, {"measurement": "Fractional Inhibitory Concentration of D-cycloserine", "setting": "[2]", "result": 0.10}]}
{"smiles": "C[C@H](NC(=O)[C@@H](N)Cc1ccccc1)P(=O)(O)O", "note": "[Derivative E, (1R)-1-(L-phenylalanylamino)-ethylphosphonic acid]", "values": [{"measurement": "Fractional Inhibitory Concentration Index", "setting": "[2]", "result": 0.48}, {"measurement": "Fractional Inhibitory Concentration of D-cycloserine", "setting": "[2]", "result": 0.13}]}
{"smiles": "CC(C)[C@H](N)C(=O)N[C@@H](C)P(=O)(O)O", "note": "[Derivative F, (1R)-1-(L-valylamino)-ethylphosphonic acid]", "values": [{"measurement": "Fractional Inhibitory Concentration Index", "setting": "[2]", "result": 0.60}, {"measurement": "Fractional Inhibitory Concentration of D-cycloserine", "setting": "[2]", "result": 0.13}]}
{"smiles": "CC(C)C[C@H](N)C(=O)N[C@@H](C)P(=O)(O)O", "note": "[Derivative G, (1R)-1-(L-leucylamino)-ethylphosphonic acid]", "values": [{"measurement": "Fractional Inhibitory Concentration Index", "setting": "[2]", "result": 0.27}, {"measurement": "Fractional Inhibitory Concentration of D-cycloserine", "setting": "[2]", "result": 0.12}]}
